In patent US20230158259A1, “PRODUCTS OF MANUFACTURE AND METHODS FOR TREATING, AMELIORATING OR PREVENTING MICROBIAL INFECTIONS” (TOPELIA AUST LIMITED, priority 2020, published 2023):

Key:
[1] = tested on: COVID-19 coronavirus; type: in vivo, human; conditions: group of elderly cruise travelers
[2] = tested on: coronavirus COVID-19; type: in vivo; conditions: after 4 days of osteltamivir alone, started at time of contact

CCN(CC)CCCC(C)Nc1ccnc2cc(Cl)ccc12 (stereo not drawn) [chloroquine]
contraction of COVID-19 coronavirus [1]: None contract COVID-19 coronavirus | test for the virus upon arrival home after the cruise [1]: negative

CCOC(=O)C1=C[C@@H](OC(CC)CC)[C@H](NC(C)=O)[C@@H](N)C1 [osteltamivir, oseltamivir]
blood result for COVID-19 virus [2]: positive
